Patent publication US11253519B2, “Composition used to improve symptoms of autism spectrum disorder, and method using same for improving symptoms of autism spectrum disorder” (RENASCIENCE CO., LTD., priority 2016, dated 2022)

Key:
[1] = Capture of serotonin by glyoxal, free serotonin by HPLC; type: biochemical; conditions: 2.5 mM serotonin + 25 mM glyoxal + 25 mM test compound, pH 7.4, room temperature, 2 hours; glyoxal alone about 40%
Procedure: (§1) The reaction solutions are incubated at room temperature, and the amount of free serotonin or dopamine, which were not captured by glyoxal, in the reaction solutions was measured by HPLC.
(§2) The negative control contained only 5-HT or DP with a buffer (GO and the test compounds were not added) (test samples 1 and 5), and the positive control contained 5-HT or DP and only GO (none of the test compounds was added) (test samples 2 and 6). […] After incubation, the reaction solutions were diluted 10-fold (pH 7.4) with a 0.25 M phosphate buffer, and analyzed by HPLC. The HPLC analysis was performed with instruments produced by Shimadzu Corporation (system controller: SCL-10A vp, auto injector: SIL-10A, degasser: DGU-12A, liquid chromatograph: LC-10AD vp, UV-Vis detector: SPD-10A vp, and column oven: CTO-10AC vp) under the conditions shown in Table 6. The data analysis was performed with Chromatopac C-R7A Plus.

ASD patients = conditions: cited from earlier work
[2] = Capture of dopamine by glyoxal, free dopamine by HPLC; type: biochemical; conditions: 2.5 mM dopamine + 25 mM glyoxal + 25 mM test compound, pH 7.4, room temperature, 30 minutes; glyoxal alone about 30%
Procedure: as §1, §2

[3] = Vitamin B1 level in whole blood, serum pyridoxamine and pyridoxal levels and Wernicke's encephalopathy in two test subjects on pyridoxamine medication; type: in vivo, human

Cc1ncc(CO)c(C=O)c1O [pyridoxal]
amount of free serotonin relative to the negative control taken as 100% [1]: rather decreased
repetitive patterns of behavior of ASD patients (ASD patients; 30 mg/kg/day, other research denies this efficacy (NPL 6)): effective
amount of free dopamine relative to the negative control taken as 100% [2]: no free dopamine became detectable

Cc1ncc(CO)c(CO)c1O [pyridoxine]
side effects (irritability, hyperactivity, sound sensitivity, enuresis) (ASD patients; children with ASD, NPL 8, NPL 9): may cause side effects to develop
verbal intelligence (ASD patients; children with pervasive developmental disorder who have sensitivity to sound, NPL 7): improvement in verbal intelligence
intelligence quotient (IQ) scores (ASD patients; children with pervasive developmental disorder, sensitive to sound, expressive language disorder, dyspraxia, high amount, NPL 2): increases in intelligence quotient (IQ) scores

CC(=C(CCO)SSCC1CCCO1)N(C=O)Cc1cnc(C)nc1N (stereo in doubt) [Fursultiamine, fursultiamine, reference compound]
symptom of Wernicke's encephalopathy ([3]; subject ID No. 3, 14 weeks after start (8 weeks after start of thiamine compound 75 mg/day oral)): disappeared
vitamin B1 level in whole blood ([3]; subject ID No. 3, fursultiamine 75 mg/day oral for 6 weeks with continued pyridoxamine, 12 weeks after start, 28 ng/mL before thiamine): 135 ng/mL
symptoms of Wernicke's encephalopathy ([3]; subject ID No. 6, 11 weeks after start, on thiamine compound): disappeared
vitamin B1 level in whole blood ([3]; subject ID No. 6, fursultiamine 300 mg/day intravenous, then 100 to 50 mg/day oral, with pyridoxamine, 11 weeks after start, 25 ng/mL before thiamine): 150 ng/mL
